Key:
BRL 3A hepatocytes = assay: Metabolism in intact cultured cells (HPLC of culture supernatants); format: in vitro ADME; settings: 10 μM substrate, 24 hours, 37EC; extracellular medium assayed; FIG. 4
Protocol: Metabolic experiments with intact cultured cells were performed using the BRL 3A hepatocyte line, obtained from the UNC-Chapel Hill Lineberger Tissue Culture Facility. Cells were routinely cultured in Costar (Cambridge, Mass.) 25 cm^2 of tissue culture flasks at 37EC under moist 5% CO2 and 95% air in Ham's F-12 medium (Gibco, Gaithersburg, Md.) containing 5% fetal bovine serum (HyClone Laboratories Inc., Logan, Utah). Confluent cultures were treated with 0.25% trypsin solution (Sigma Chemical Co., ST. Louis Mo.), then approximately 2×10^5 cells/well subcultured into Costar 6-well tissue culture chambers and the cells allowed to grow to confluency. Ten mL fresh medium was added to each culture well and incubations were started by adding 100 μL amidoxime solution (prepared in sterile water) to a final concentration of 10 μM. Cell cultures were incubated at 37EC under moist 5% CO2 and 95% air for 24 hours, then aliquots of culture supernatants extracted and assayed for metabolites as described below. Similar metabolic experiments were performed with cultured J774 A.1 mouse monocyte-macrophage cells cultured in DMEM F-12 medium containing 10% fetal bovine serum and H9c2 rat heart myoblast cells cultured in DMEM H medium containing 10% fetal bovine serum.
(§1) Samples were extracted using solid phase extraction and assayed using high performance liquid chromatography (HPLC) by methods similar to those previously described in Berger et al. (1992) and Berger et al., (1991), supra. Briefly, samples spiked with 2,5-bis[4-(N-isopropylamidino)phenyl]furan dihydrochloride as the internal standard (IS) were extracted over activated C18 Bond Elut cartridges (Varian Associates, Sunnydale, Calif.), washed with water, 100% acetonitrile, then eluted with 75% acetonitrile/25% water containing 15 mm triethylamine and 35 mM acetic acid. The diamidoxime substrates elute in the 100% acetonitrile phase, while mono-amidine and diamidine products elute in the acetonitrile/water mixture containing triethylamine and acetic acid. Elutes were evaporated to dryness at 40EC under a gentle stream of nitrogen and resuspended in HPLC grade water.
Compounds were resolved using a Hewlett-Packard (Avondale, Pa.) model 1090 HPLC equipped with a HP 1050 variable wavelength detector set at 265 nm, a 4.6×250 mm Zorbax RX diisopropyl C8 column (Mac-Mod, Chadd's Ford, PA) maintained at 40EC and a Vectra 486/66U computer with HP Chemstations software. […] Quantities of metabolites formed were calculated, using peak area rations of authentic standard, from standard addition curves generated by spiking standards into tissue homogenates or tissue culture medium.

Pneumocystis carinii [1] = assay: Anti-P. carinii activity in immunosuppressed rat model (lung cyst counts); format: in vivo, Sprague-Dawley rats; settings: for anti-P. carinii activity / mean cyst counts when given intravenously (in words): Formula I amidoximes, intravenous; for anti-P. carinii activity when given orally (in words): Formula I series, orally by gavage once daily for 14 days; for % saline, ORAL DOSING / % saline, IV DOSING: Table 2; for % saline, ORAL DOSING: oral by gavage daily for 14 days @33 μmol/kg body weight; for % saline, IV DOSING: tail vein injection daily for 14 days at 22 mg/kg body weight
Protocol: The activity of the compounds of Formula I against P. carinii was carried out according to an established method. See Tidwell, R. R., et al., J. Protozool. […] Agents Chemother. […] Agents Chemother. […] Briefly, male Sprague-Dawley rats (barrier raised, not certified virus-free) weighing 150-200 g each, were obtained (Hilltop Laboratories, Scottsdale, Pa.). Immediately upon arrival, the animals were caged individually and begun on a low protein (8%) diet and on drinking water containing tetracycline (0.5 mg/mL) and dexamethasone (1.0 μ/mL). This regimen was continued for eight weeks. At the beginning of the seventh week, animals were divided into groups of 8 or more, and the test compounds were administered for 14 days. Saline and pentamidine-treated groups were included as controls.
Animals were sacrificed at the end of the eighth week by chloroform inhalation. The left lung was weighed, ground through a No. 60 wire mesh screen, and suspended 1:10 (wt/vol) in 10 mM β-mercaptoethanol-Hanks' balanced salts solution (HBSS) without cations. Slides were prepared by spotting 5 μL of lung homogenate diluted 1:10 in HBSS with β-mercaptoethanol and allowed to air dry. The slides were stained with cresyl violet, and the cysts were counted by a blinded protocol. The number of cysts per gram of original lung tissue was calculated, and the groups were reported as the percentages of saline-treated controls.
The anti-P. carinii value for each compound is expressed as the percent of cysts in the treatment group as compared to the saline control group. Values are also compared to a positive control group consisting of animals treated intravenously with pentamidine.

[2] = Acute toxicity of single doses in normal rats; format: in vivo; settings: for time after injection to recovery: single IV 80 μmol/kg; for time after injection to recovery / persistence of symptoms: single IV 160 μmol/kg; for overt toxic responses after single oral doses: single oral doses as high as 160 μmol/kg; for overt acute adverse reactions following single intravenous injections, compared to the bis-benzamidines: single tail vein injection
[3] = In vitro metabolism by rat tissue homogenate 9000×g supernatants (HPLC); format: in vitro ADME; settings: for metabolism by rat liver homogenate 9000×g supernatants: 167 μM substrate plus cofactor solution, 37EC, 10 minutes, FIG. 1
Protocol: In vitro metabolism of diamidoximes 1, 3, 5, and 7 by rat liver homogenate 9000×g supernatants, post-mitochondrial 105,000×g supernatants or microsomal fractions were performed as previously described in B. J. Berger et al., Antimicrob. Agents and Chemotherapy 36, 1825-1831 (1992); B. J. Berger et al., J. Pharmacol. Experimental Therapeutics 256, 883-89 (1991). Briefly, adult male Sprague-Dawley rats, barrier raised, (Hilltop Laboratories, Scottsdale, Pa.) animals were given water and rat chow (Agway, Syracuse, N.Y.) ad libitum. The rats were euthanized by decapitation, the livers removed immediately, rinsed with 50 mM potassium phosphate buffer, pH 7.4, and placed on ice. All subsequent steps were performed at 4EC. The livers were minced, homogenized, and 9000×g supernatants, 105,000×g or 105,000×g microsomal pellets prepared. Each fraction was assayed for protein content as described in M. M. Bradford, Anal. Biochem. 72, 248-254 (1976) and stored at −80EC. Fractions from the rat kidneys, lungs, hearts and brains were prepared similarly.
Reaction mixtures consisted of 1.5 mL 50 mM potassium phosphate buffer, pH 7.4, 0.5 mL cofactor solution (2 mg/mL NADPH, 1.6 mg/mL MgCl2, 1.04 mg/mL glucose-6-phosphate and 2 units/mL glucose-6-phosphate dehydrogenase in 50 mM potassium phosphate buffer pH 7.4), 0.5 mL tissue homogenate and 0.5 mL of the appropriate diamidoxime substrate at a concentration of 167 μM. Reactions were started by adding substrate, then mixtures were incubated at 37EC in a shaking water bath for times shown in the figures. Reactions were terminated by extracting over C18 cartridges and assaying as described below.
as §1
Compounds were resolved using a Hewlett-Packard (Avondale, Pa.) model 1090 HPLC equipped with a HP 1050 variable wavelength detector set at 265 nm, a 4.6×250 mm Zorbax RX diisopropyl C8 column (Mac-Mod, Chadd's Ford, PA) maintained at 40EC and a Vectra 486/66U computer with HP Chemstations software. The mobile phase consisted of 15 mM triethylamine and 35 mM acetic acid in HPLC grade water for pump A, and 15 mM triethylamine and 35 mM acetic acid in 75% acetonitrile in water for pump B. The solvent flow rate was 1.5 mL/min, and the solvent gradient ran from 0% B to 25% B at 22 min, to 40% B at 25 min, then 90% B at 35 min. All solvents and reagents used for the assays were HPLC grade. Quantities of metabolites formed were calculated, using peak area rations of authentic standard, from standard addition curves generated by spiking standards into tissue homogenates or tissue culture medium.

[4] = Subjective scale of toxicity and tolerance during treatment in the immunosuppressed rat model; settings: subjective scale
Text: ^b subjective scale of toxicity. […] In general, the larger the value the more severe the toxicity, with values greater than 2 indicating the death of some animals

Pneumocystis carinii [5] = settings: immunosuppressed rat model, D. W. Boykin et al., J. Med. Chem. 38, 912 (1995); cited from earlier work

SMILES	metabolism in intact BRL 3A hepatocytes (BRL 3A hepatocytes)	anti-P. carinii activity / mean cyst counts when given intravenously (in words) (Pneumocystis carinii [1])	anti-P. carinii activity when given orally (in words) (Pneumocystis carinii [1])	% saline, ORAL DOSING (Pneumocystis carinii [1])	% saline, IV DOSING (Pneumocystis carinii [1])	observed acute toxicity after single intravenous injection ([2]; normal rats, 80 μmol/kg)	observed acute toxicity after single intravenous injection ([2]; normal rats, 160 μmol/kg)	time after injection to recovery ([2]; normal rats)	time after injection to recovery / persistence of symptoms ([2]; normal rats)	overt toxic responses after single oral doses ([2]; normal rats)	overt acute adverse reactions following single intravenous injections, compared to the bis-benzamidines ([2]; normal rats)	metabolism by rat liver homogenate 9000×g supernatants [3]	further results
COc1cc(C(N)=NO)ccc1OCCCOc1ccc(C(N)=NO)cc1OC.O=C(O)/C=C\C(=O)O.O=C(O)/C=C\C(=O)O [Compound 7, 1,3-bis(2′-methoxy-4′-(N-hydroxyamidino)phenoxy)propanedi-hemimaleinate]	metabolized predominantly to the corresponding diamidine	significantly reduced compared to saline controls	most active	3.71 % saline	0.03 % saline	only very minor hypoactivity and dyspnea	pronounced hypoactivity, dyspnea, cyanosis, and increased salivation and lacrimation	5 min	approximately 10 minutes	No overt toxic responses	greatly reduced	metabolized similarly	observed acute toxicity after single intravenous injection ([2]; normal rats, 20 or 40 μg/kg): no observable adverse effects
NC(=NO)c1ccc(OCCCCCOc2ccc(C(N)=NO)cc2)cc1.O=C(O)/C=C\C(=O)O.O=C(O)/C=C\C(=O)O [Compound 1, 1,5-bis(4′-(N-hydroxyamidino)phenoxy)pentanedi-hemimaleinate]	metabolized predominantly to the corresponding diamidine	significantly reduced compared to saline controls		19.27 % saline	0.15 % saline	Minor toxic responses, including barely observable hindleg ataxia and slight hypoactivity		5 min		No overt toxic responses	greatly reduced	forming large quantities of the monoamidine-monoamidoxime derivative, and smaller amounts of pentamidine	observed acute toxicity after single intravenous injection ([2]; normal rats, bolus injections above 120 μmol/kg): severe dyspnea and profound hypoactivity; observed acute toxicity after single intravenous injection ([2]; normal rats, from 20 to 60 μmol/kg): no observable adverse reactions; metabolism by 9000×g supernatants of homogenates of rat liver, kidney, lung and heart ([3]; FIG. 3A-3D): into its amidine analog pentamidine
NC(=NO)c1ccc(OCCCOc2ccc(C(N)=NO)cc2)cc1.O=C(O)/C=C\C(=O)O.O=C(O)/C=C\C(=O)O [Compound 5, 1,3-bis(4′-(4-hydroxyamidino)phenoxy)propanedi-hemimaleinate]	metabolized predominantly to the corresponding diamidine	significantly reduced compared to saline controls	most active	2.25 % saline	0.03 % saline		only minor ataxia and/or hypoactivity		5 min	No overt toxic responses	greatly reduced	metabolized similarly	observed acute toxicity after single intravenous injection ([2]; normal rats, 20, 40 or 80 μmol/kg): no overt toxicity
N=C(N)c1ccc(-c2ccc(-c3ccc(C(=N)N)cc3)o2)cc1 [Compound 9, 2,5-bis-[4-amidinophenyl]furan, reference compound]													Toxicity, IV DOSING ([4]; 0.03 μmol/kg/day): 0; Toxicity, IV DOSING ([4]; 0.3 μmol/kg/day): 0; Toxicity, IV DOSING ([4]; 2.7 μmol/kg/day): 0; Toxicity, IV DOSING ([4]; 13.3 μmol/kg/day): 0; Toxicity, IV DOSING ([4]; 26.6 μmol/kg/day): +1; Toxicity, ORAL DOSING ([4]; 39.8 μmol/kg/day): 0; Toxicity, ORAL DOSING ([4]; 66.3 μmol/kg/day, larger = more severe): 0; activity on oral administration, furan series (in words) (Pneumocystis carinii [1]; immunosuppressed rat model, orally by gavage): significantly less; activity and toxicity compared with pentamidine on intravenous dosage (Pneumocystis carinii [5]): more active and less toxic than pentamidine

From patent publication US6423737B1, “Benzamidoxime prodrugs as antipneumocystic agents” (The University of North Carolina at Chapel Hill, priority 1995, dated 2002)
